Data on seven molecules can be found in ChEMBL document CHEMBL4376804, “Review of Transient Receptor Potential Canonical (TRPC5) Channel Modulators and Diseases” (J Med Chem, 2019).

The target of data set [1] is T1, Short transient receptor potential channel 6 (Homo sapiens, UniProt Q9Y210).
T1 sequence (Q9Y210 whole entry): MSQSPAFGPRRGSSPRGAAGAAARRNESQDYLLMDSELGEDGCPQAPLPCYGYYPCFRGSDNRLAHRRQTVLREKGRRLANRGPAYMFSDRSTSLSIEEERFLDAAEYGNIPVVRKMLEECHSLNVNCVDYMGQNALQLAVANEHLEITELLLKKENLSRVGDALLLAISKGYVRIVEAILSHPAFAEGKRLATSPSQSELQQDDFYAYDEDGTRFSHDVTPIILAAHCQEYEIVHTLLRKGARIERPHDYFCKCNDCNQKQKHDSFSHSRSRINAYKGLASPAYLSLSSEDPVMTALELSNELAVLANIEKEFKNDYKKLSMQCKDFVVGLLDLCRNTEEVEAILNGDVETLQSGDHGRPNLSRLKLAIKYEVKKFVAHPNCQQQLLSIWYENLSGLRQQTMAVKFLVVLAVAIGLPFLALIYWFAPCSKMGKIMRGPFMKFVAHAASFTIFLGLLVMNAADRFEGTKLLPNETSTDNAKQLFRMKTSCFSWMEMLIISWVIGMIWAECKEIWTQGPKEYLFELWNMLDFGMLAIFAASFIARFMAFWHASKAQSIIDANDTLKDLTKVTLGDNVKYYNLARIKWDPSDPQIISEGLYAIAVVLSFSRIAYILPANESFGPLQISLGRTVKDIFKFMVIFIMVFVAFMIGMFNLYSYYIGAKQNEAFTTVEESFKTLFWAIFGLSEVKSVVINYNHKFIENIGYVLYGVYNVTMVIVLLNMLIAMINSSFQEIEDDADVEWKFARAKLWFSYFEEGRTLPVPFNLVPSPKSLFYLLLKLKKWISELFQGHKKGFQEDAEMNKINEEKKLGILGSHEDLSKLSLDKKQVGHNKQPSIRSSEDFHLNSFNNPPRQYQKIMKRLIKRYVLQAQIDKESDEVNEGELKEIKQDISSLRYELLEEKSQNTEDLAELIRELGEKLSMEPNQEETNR
Nature of the data set: Inhibition of human TRPC6 expressed in HEK293 cells assessed as reduction in OAG-induced calcium influx preincubated for 2 mins followed by OAG stimulation by fluo-4/AM dye based FLIPR assay. The class given is cell-based.

In data set [2] the target is T2, Short transient receptor potential channel 4 (Mus musculus, UniProt Q9QUQ5).
T2 sequence (Q9QUQ5 whole entry): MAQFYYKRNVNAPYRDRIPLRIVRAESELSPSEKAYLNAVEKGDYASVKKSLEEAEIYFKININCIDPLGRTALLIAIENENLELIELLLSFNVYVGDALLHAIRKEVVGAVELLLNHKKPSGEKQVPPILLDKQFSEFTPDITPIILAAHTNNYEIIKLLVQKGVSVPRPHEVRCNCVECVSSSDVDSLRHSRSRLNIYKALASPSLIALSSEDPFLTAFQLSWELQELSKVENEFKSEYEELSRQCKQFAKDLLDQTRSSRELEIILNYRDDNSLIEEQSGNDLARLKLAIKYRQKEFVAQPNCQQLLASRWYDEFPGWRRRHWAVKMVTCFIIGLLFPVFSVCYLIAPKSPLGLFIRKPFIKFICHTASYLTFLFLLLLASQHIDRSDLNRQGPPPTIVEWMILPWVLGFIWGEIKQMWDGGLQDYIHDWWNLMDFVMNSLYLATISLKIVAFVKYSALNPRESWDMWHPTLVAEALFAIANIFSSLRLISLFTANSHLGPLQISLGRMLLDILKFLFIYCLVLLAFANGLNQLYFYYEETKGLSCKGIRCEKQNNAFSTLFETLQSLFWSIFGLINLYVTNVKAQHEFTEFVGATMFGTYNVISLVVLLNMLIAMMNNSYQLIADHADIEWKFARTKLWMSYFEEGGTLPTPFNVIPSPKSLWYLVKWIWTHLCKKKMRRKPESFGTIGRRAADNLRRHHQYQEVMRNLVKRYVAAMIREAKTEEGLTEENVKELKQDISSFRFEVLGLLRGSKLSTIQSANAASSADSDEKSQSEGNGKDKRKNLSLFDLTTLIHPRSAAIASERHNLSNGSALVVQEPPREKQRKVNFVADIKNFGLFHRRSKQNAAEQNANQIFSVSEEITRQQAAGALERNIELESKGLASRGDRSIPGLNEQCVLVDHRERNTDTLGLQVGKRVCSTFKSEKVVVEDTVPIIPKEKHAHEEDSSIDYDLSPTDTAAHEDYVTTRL
Nature of the data set: Inhibition of mouse TRPC4 beta expressed in HEK293 cells co-expressing mu-opioid receptor assessed as reduction in DAMGO-induced intracellular calcium level in presence of mu-opioid receptor agonist DAMGO by Fluo-4AM dye based fluorescence assay. The class given is cell-based.

Data set [3] addresses T3, Short transient receptor potential channel 6 (Mus musculus, UniProt Q61143).
T3 sequence (Q61143 whole entry): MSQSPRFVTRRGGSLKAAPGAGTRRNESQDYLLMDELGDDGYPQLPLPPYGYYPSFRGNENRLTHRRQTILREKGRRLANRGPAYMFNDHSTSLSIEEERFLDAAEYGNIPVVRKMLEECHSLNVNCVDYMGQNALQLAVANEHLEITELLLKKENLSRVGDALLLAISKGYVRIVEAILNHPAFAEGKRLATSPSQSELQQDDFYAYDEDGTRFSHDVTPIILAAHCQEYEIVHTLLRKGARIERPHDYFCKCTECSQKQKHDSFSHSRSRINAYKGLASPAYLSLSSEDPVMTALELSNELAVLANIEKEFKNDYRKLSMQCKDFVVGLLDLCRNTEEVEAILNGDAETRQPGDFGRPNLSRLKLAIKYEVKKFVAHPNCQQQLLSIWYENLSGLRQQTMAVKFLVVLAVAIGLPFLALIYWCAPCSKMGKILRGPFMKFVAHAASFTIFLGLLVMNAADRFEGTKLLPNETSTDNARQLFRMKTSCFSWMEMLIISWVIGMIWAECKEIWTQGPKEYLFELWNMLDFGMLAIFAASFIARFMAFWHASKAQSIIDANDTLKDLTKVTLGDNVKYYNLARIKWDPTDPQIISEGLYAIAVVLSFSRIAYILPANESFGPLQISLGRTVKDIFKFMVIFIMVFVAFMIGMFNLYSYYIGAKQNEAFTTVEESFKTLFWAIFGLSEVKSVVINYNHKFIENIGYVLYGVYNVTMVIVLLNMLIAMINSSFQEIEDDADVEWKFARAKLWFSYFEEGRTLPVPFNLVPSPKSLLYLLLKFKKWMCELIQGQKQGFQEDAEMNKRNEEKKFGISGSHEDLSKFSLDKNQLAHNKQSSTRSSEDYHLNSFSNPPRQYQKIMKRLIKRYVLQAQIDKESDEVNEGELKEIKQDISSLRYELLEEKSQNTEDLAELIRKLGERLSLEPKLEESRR
In words: Inhibition of HA-tagged mouse TRPC6 expressed in HEK293 cells assessed as reduction in acetylcholine-induced membrane potential by FLIPR membrane potential dye based assay. The class given is cell-based.

The species named for the next data set is Mus musculus. Nature of the data set: Selectivity ratio of mouse TRPC4 beta expressed in HEK293 cells co-expressing mu-opioid receptor to IC50 for mouse TRPC6 expressed in HEK293 cells. The data set is classed as cell-based.
A further data set concerns the target Acetylcholinesterase (Homo sapiens, UniProt P22303). In words: Inhibition of human recombinant acetylcholinesterase expressed in HEK-293 cells using AMTch as substrate after 30 mins by spectrophotometric method.
The next data set has as its target TRPC6. In words: Inhibition of TRPC6 expressed in HEK293 cells coexpressing M5 receptor assessed as reduction in TRPC6-mediated calcium influx by fluorescence method.
For a further data set, the target named is TRPC4/TRPC1 (Homo sapiens, UniProt P48995+Q9UBN4). In words: Antagonist activity at TRPC4/TRPC1 in human A498 cells assessed as reduction in englerin A-induced calcium entry preincubated for 30 mins followed by englerin A addition by fluorescence method. The data set is classed as cell-based.
Data set [4] deals with T4, Short transient receptor potential channel 3 (Homo sapiens, UniProt Q13507).
T4 sequence (Q13507 whole entry): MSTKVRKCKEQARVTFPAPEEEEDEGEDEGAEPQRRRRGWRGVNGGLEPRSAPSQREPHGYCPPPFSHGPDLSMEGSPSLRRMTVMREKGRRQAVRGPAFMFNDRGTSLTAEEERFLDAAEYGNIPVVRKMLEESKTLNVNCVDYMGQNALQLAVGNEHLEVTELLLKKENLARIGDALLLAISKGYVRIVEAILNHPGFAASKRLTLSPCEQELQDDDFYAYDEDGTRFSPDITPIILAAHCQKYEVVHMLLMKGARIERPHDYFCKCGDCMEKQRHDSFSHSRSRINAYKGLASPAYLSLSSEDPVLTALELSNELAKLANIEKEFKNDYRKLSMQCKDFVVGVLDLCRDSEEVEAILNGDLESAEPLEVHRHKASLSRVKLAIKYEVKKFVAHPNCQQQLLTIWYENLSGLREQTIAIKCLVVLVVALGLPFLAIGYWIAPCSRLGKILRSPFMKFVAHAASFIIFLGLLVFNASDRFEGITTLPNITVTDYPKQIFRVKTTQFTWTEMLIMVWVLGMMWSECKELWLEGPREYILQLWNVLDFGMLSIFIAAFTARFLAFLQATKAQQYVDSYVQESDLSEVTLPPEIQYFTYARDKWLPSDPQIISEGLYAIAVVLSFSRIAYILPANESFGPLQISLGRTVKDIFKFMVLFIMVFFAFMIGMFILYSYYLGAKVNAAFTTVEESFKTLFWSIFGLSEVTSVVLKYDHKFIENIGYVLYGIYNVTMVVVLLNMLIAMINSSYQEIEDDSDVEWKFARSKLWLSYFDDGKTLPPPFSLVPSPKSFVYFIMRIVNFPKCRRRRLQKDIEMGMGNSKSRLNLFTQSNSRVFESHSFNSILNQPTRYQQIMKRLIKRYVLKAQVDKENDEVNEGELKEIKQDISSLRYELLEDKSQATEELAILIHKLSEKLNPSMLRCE
In words: Inhibition of YFP-tagged TRPC3 (unknown origin) expressed in HEK293 cells assessed as reduction carbhocol-induced receptor operated Calcium influx after 5 mins by fura-2-AM dye based assay. The data set is classed as cell-based.

The target of another data set is ORAI1/STIM1 (Rattus norvegicus, UniProt P84903+Q5M848). Nature of the data set: Inhibition of ORAI/STIM1 in thapsigargin treated rat RBL2H3 cells assessed as reduction in store-operated calcium entry after 5 mins by fura-2-AM dye based assay. The class given is cell-based.
Data set [5] is described as follows: Selectivity ratio of ORAI/STIM1 in thapsigargin treated rat RBL2H3 cells to YFP-tagged TRPC3 (unknown origin) expressed in HEK293 cells. The class given is cell-based.
Data set [6] has as its target T3, Short transient receptor potential channel 6. In words: Inhibition of mouse TRPC6 expressed in HEK293 cells co-expressing M5 receptor assessed as reduction in carbachol-induced membrane potential by FMP-2 dye based assay. The data set is classed as cell-based.
In data set [7] the target is T4, Short transient receptor potential channel 3. In words: Inhibition of human TRPC3 expressed in HEK293 cells assessed as reduction in carbachol-induced membrane potential by FMP-2 dye based assay. The class given is cell-based.
A short description of data set [8]: Inhibition of human TRPC1/mouse TRPC4 beta expressed in HEK293 cells co-expressing M2 receptor assessed as reduction in […] membrane potential by FMP-2 dye based assay. The class given is cell-based.
Data set [9] is described as follows: Drug concentration in C57BL/6 mouse serum at 10 mg/kg, ip after 2 hrs by UPLC method. The data set is classed as ADME, organism-based. The note with it: read-out: Drug uptake.
Data set [10] in a line: Drug concentration in C57BL/6 mouse brain at 10 mg/kg, ip after 2 hrs by UPLC method. The class given is ADME, organism-based. The note with it: read-out: Drug uptake.
The nature of data set [11]: Drug concentration in C57BL/6 mouse cerebrospinal fluid at 10 mg/kg, ip after 2 hrs by UPLC method. The data set is classed as ADME, organism-based. The conditions noted are these: read-out: Drug uptake.

pIC50: −log10 of the molar value.

Chain of Acetylcholinesterase (P22303 whole entry): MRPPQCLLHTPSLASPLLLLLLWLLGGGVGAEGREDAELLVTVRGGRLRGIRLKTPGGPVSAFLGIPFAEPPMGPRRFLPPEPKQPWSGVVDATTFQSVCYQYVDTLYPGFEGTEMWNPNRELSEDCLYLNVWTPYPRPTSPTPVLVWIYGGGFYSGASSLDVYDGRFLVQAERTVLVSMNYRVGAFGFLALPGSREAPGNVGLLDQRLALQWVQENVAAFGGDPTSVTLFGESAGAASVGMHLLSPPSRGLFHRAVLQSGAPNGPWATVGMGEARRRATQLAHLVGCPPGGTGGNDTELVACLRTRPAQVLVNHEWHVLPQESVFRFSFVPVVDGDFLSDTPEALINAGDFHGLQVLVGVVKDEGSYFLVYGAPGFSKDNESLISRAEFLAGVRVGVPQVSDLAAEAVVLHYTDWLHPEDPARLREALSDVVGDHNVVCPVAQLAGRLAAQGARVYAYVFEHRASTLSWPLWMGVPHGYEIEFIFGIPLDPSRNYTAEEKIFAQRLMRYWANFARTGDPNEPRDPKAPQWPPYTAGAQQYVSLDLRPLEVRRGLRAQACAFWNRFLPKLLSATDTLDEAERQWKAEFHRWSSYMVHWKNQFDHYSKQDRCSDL
Chain of ORAI1/STIM1 (P84903 whole entry): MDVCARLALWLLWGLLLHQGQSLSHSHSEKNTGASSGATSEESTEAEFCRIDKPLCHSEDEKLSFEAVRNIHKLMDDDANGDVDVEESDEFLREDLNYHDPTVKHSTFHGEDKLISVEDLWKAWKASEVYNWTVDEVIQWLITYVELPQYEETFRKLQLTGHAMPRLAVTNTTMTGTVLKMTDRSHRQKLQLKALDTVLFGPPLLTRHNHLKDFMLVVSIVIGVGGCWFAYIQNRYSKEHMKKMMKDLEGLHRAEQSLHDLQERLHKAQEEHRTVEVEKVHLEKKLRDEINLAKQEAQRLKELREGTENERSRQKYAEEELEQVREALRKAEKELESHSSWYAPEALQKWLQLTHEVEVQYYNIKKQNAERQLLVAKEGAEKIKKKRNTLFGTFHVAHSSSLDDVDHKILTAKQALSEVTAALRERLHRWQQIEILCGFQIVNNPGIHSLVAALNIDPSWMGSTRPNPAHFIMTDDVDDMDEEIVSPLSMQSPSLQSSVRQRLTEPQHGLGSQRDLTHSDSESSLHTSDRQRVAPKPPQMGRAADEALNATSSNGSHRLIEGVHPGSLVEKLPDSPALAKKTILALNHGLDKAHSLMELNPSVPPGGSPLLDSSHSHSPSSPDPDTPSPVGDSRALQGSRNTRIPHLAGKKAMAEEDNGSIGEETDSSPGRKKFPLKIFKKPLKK
Chain of ORAI1/STIM1 (Q5M848 whole entry): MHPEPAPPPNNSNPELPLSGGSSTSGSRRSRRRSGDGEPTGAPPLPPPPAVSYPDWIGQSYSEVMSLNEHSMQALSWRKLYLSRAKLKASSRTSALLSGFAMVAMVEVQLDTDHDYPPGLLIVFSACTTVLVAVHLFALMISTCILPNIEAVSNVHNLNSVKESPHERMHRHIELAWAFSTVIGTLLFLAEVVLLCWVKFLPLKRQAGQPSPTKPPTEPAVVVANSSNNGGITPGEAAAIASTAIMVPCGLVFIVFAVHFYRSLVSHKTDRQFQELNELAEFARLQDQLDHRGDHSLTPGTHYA
Chain of TRPC4/TRPC1 (Q9UBN4 whole entry): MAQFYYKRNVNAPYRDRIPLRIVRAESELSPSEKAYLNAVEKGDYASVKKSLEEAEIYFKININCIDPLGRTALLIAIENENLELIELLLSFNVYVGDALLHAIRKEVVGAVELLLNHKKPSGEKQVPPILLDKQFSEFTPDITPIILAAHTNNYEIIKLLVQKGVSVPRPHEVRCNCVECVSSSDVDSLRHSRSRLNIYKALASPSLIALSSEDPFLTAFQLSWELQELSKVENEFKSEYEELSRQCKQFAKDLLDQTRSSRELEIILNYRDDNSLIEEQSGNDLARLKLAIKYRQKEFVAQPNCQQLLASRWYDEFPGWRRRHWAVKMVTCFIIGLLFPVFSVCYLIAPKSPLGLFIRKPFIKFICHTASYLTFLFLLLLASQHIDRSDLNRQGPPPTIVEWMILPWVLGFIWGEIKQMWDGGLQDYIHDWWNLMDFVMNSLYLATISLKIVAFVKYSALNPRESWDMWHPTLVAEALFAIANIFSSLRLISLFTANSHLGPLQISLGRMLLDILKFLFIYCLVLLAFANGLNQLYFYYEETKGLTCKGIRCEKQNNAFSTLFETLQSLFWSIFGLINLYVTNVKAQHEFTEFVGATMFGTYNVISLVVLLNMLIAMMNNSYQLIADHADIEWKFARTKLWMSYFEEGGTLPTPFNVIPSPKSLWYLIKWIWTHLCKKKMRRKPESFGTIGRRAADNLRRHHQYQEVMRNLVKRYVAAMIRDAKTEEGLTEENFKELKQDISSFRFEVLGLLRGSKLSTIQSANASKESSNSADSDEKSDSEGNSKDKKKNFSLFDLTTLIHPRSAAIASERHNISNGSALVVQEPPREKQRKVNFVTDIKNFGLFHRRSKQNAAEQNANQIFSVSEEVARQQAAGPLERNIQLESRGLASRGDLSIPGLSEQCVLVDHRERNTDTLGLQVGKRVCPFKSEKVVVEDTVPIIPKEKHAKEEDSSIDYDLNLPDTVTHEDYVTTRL
Chain of TRPC4/TRPC1 (P48995 whole entry): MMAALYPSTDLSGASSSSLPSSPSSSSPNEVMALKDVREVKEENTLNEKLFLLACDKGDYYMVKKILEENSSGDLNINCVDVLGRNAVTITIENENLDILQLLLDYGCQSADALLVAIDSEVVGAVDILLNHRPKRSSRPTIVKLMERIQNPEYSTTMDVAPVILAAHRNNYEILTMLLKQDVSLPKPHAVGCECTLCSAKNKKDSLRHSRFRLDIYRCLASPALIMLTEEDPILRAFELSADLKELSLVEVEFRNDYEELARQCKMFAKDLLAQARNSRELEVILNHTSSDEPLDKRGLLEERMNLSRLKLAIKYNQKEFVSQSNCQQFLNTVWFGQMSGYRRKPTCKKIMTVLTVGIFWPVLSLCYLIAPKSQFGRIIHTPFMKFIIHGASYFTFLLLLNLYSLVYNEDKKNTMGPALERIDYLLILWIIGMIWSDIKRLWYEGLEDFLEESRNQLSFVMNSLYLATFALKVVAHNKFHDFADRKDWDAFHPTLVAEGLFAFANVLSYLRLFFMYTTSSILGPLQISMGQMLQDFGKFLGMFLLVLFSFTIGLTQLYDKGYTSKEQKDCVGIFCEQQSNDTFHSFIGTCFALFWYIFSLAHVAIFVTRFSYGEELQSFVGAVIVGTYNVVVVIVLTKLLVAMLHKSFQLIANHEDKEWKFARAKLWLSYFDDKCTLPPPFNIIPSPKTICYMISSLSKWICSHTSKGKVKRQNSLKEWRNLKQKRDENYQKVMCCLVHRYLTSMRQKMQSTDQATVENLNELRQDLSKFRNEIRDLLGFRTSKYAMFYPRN

Take `C=C[C@@](C)(CC[C@H]1C(=C)C[C@H](OC(N)=O)[C@H]2C(C)(C)CCC[C@]12C)OC(C)=O`: in [1], the pIC50 is 6.60.

Take `Cc1cc(N2CCCCC2)nc2ccccc12`: the values for the negative-log IC50 (pIC50) (in data set [2]; in [3]; on Acetylcholinesterase) were 6.02, 4.75 and 6.08, respectively. For the same molecule, in the data set filed under Mus musculus, the Ratio IC50 came out at 19.

Take `Cc1nn2c(O)cc(C3CCN(C(=O)OC(C)(C)C)CC3)nc2c1-c1ccc(F)cc1`: the negative-log IC50 (pIC50) on TRPC6 was 5.08.

For the molecule `C=C[C@](C)(O)CC[C@H]1C(=C)C[C@H](OC(N)=O)[C@H]2C(C)(C)CCC[C@]12C`, the pIC50 in [1] is 6.77.

With `CC(C)[C@]12C[C@@H](OCCO)[C@](C)(O1)[C@@H]1CC[C@@H](C)[C@H]1[C@@H]2OC(=O)/C=C/c1ccccc1`, the negative-log IC50 (pIC50) at TRPC4/TRPC1 was 7.21.

Turning to `O=C(Nc1ccc(-n2nc(C(F)(F)F)cc2C(F)(F)F)cc1)c1ccncc1F`, the results for the pIC50 (in data set [4]; on ORAI1/STIM1) were 4.73 and 6.31, respectively. The Ratio IC50 in data set [5] was 37.

Turning to `CCCCNc1nc2ccccc2[nH]1`, the pIC50 in data set [6] is 4.22; in data set [7], 4.31; in data set [8], 5.08. Also, the results for the concentration at 2 h in [9], in [10] and in data set [11] were 2260 ng/mL, 1100 ng/g and 335 ng/mL, respectively.
